What was measured:
rice [1] = assay: Comparative selectivity test on rice in submerged culture, air-conditioned atmosphere (Example 7); format: in vivo; conditions: for Main root, average value per plant / Shoot, average value per plant / Sprouted plants: 24 days
Method: (§1) Into a set of cylindrical pots having a 200 cm^2 internal surface, sieved rice field earth in a quantity of 1 kg. per pot was introduced. After leveling and wetting with 200 cc. of water, the earth surface of the pots was uniformly sprayed with hydroacetone solutions containing, respectively, 0, 0.2, 0.3, and 0.4% active product (a.p.). 4 Ml. of the solution were sprayed onto each pot, so that the amount of active product in a set of four pots was 0, 4, 6, and 8 kg./ha., respectively. Immediately after spraying, each pot was filled with water to a level of 7 cm. over the soil surface. Thereafter, the sowing was carried out at the rate of 15 pre-germinated rice seeds per pot. Three repetitions were performed for each treatment. The pots were kept in an air-conditioned atmosphere with a daily temperature variation between 10° and 25°C and a 14 hour per day light period. After 24 days, the percentage of sprouted plants and the length of the shoot were recorded.

rice [2] = assay: Open field test on rice, biometric controls (Example 10); format: in vivo, rice cv. RIBE; conditions: 36 days
Method: (§2) In the province of Novara, Italy, a test was performed outdoors in clay soil. For each treatment, a 600 m^2 plot provided with independent water feed was prepared. After soil working and leveling, the treatment was effected on Apr. 23, 1970, using formulations in emulsifiable oils of M3432 and of molinate, sprayed by means of mechanical devices. Only the plot treated with molinate was harrowed just after treatment in order to incorporate the product and to avoid any losses of same due to volatilization. Immediately afterwards, the plots were flooded to a water level of 10-12 cm.
(§3) Pre-germinated cv. RIBE rice was mechanically sowed broadcast on Apr. 25, 1970.
36 Days after the treatment, 50 rice plants were taken at random from each plot and subjected to biometric controls.

Rice plants = assay: Open field test on rice, periodical checks of the plots (Example 10); format: in vivo, rice cv. RIBE; conditions: two months
Method: as §2, §3
Periodical checks were carried out on the four plots. […]

Dactylis glomerata = assay: Weeding activity in screening conditions (Example 12); format: in vivo; conditions: 25 days
Source text: (§4) Two sets of small square tanks having 11 cm. sides, filled with field earth admixed with 30% of sand, were sowed at a depth of 0.5-1 cm. with the following grass species: Echinocloa crus galli, Setaria italica, Alopecurus myosiuroides, Lolium italicum, Digitaria sanguinalis, Avena fatua, Agrostis segetum, and Dactylis glomerata. After sowing, the earth surface of the tanks was uniformly sprayed with 2.4 cc./tank of hydroacetone solutions containing, respectively, 0, 0.05, 0.10, 0.20 and 0.30% of M3432 and of molinate, respectively, in order to obtain doses thereof corresponding to 0, 1, 2, 4, and 6 kg./ha., respectively.
(§5) Only one set of small tanks was covered with a 1 cm. layer of earth just after the treatment. All of the tanks were kept in an air-conditioned chamber identical with that described in Example 7, and were watered every day. 25 days after the treatment, the final results were examined, attributing to each treatment the following scale of values: […]

Echinocloa crus galli = assay: as above; format: in vivo; conditions: 25 days
Source text: as §4, §5

Setaria italica = assay: as above; format: in vivo; conditions: 25 days
Source text: as §4, §5

Digitaria sanguinalis = assay: as above; format: in vivo; set-up: scale not given here; conditions: 25 days
Source text: as §4, §5

Lolium italicum = assay: as above; format: in vivo; set-up: scale not given here; conditions: 25 days
Source text: as §4, §5

Echinocloa spp. = assay: Pre-emergence activity on Echinocloa in flooded cultures, pots (Example 13); format: in vivo
Method: as §1, with “After 24 days, the percentage of sprouted plants and the length of the shoot were recorded.” left out
The same method described in Example 7 was adopted, the only variations being the doses (0, 0.5, 1, 2 and 4 kg./ha.). the type of formulation and the sowing of Echinocloa spp. (25 slightly pre-germinated seeds per pot) instead of rice.

[3] = Treated surface covered with 1 cm earth layer, 2 kg./ha.
[4] = Treated surface covered with 1 cm earth layer, 4 kg./ha.
[5] = Treated surface covered with 1 cm earth layer, 6 kg./ha.
[6] = Test No. 1, hydroacetone solution, 2 kg./ha., 22 days
[7] = Test No. 1, hydroacetone solution, 4 kg./ha., 22 days
[8] = Test No. 2, hydroacetone solution, 0.5 kg./ha., 21 days
[9] = Test No. 2, hydroacetone solution, 1 kg./ha., 21 days
[10] = Test No. 2, hydroacetone solution, 2 kg./ha., 21 days
[11] = Test No. 3, 50% emulsifiable oil, 2 kg./ha., 27 days
[12] = Test No. 3, 50% emulsifiable oil, 4 kg./ha., 27 days
[13] = Test No. 3, hydroacetone solution, 2 kg./ha., 27 days
[14] = Test No. 3, hydroacetone solution, 4 kg./ha., 27 days

With CCC(C)N(C(=O)SCc1ccccc1)C(C)CC (centres unmarked) [M3432, S-benzyl-N,N-disec.butylthiocarbamate] the “Main root, average value per plant” value (rice [1]; 4 kg./ha.) was 8.3 cm, the “Shoot, average value per plant” value (rice [1]; 4 kg./ha.) was 17.8 cm and the Sprouted plants (rice [1]; 4 kg./ha.) was 60.0%. For the same compound, the “Main root, average value per plant” value (rice [1]; 6 kg./ha.) was 10.4 cm, the “Shoot, average value per plant” value (rice [1]; 6 kg./ha.) was 21.1 cm and the Sprouted plants (rice [1]; 6 kg./ha.) was 53.3%. The “Main root, average value per plant” value (rice [1]; 8 kg./ha.) was 10.1 cm, the “Shoot, average value per plant” value (rice [1]; 8 kg./ha.) was 23.9 cm and the Sprouted plants (rice [1]; 8 kg./ha.) was 77.7%. The Main root (rice [2]; 4 kg./ha.) was 9.29 cm, the “Roots, average weight per plant on dry basis” value (shortened to “Roots … per plant on dry basis”) (rice [2]; 4 kg./ha.) was 2.431 g and the Secondary roots (rice [2]; 4 kg./ha.) was 9.64 no. The Shoot (rice [2]; 4 kg./ha.) was 29.22 cm, the “Shoot, average weight per plant on dry basis” value (“Shoot … per plant on dry basis” below) (rice [2]; 4 kg./ha.) was 4.073 g and the “Total, average weight per plant on dry basis” value (from here on “Total … per plant on dry basis”) (rice [2]; 4 kg./ha.) was 6.504 g. For the same compound, the Main root (rice [2]; 6 kg./ha.) was 10.19 cm, the “Roots … per plant on dry basis” value (rice [2]; 6 kg./ha.) was 3.123 g and the Secondary roots (rice [2]; 6 kg./ha.) was 10.42 no. The Shoot (rice [2]; 6 kg./ha.) was 30.17 cm, the “Shoot … per plant on dry basis” value (rice [2]; 6 kg./ha.) was 4.209 g and the “Total … per plant on dry basis” value (rice [2]; 6 kg./ha.) was 7.341 g. For the same compound, the Average height (Rice plants; 4 kg./ha.) was “about 60 cm”, the Average height (Rice plants; 6 kg./ha.) was “about 60 cm” and the Weeding activity (Dactylis glomerata; Surface, 1 kg./ha.) was 3/4. For the same compound, the Weeding activity (Dactylis glomerata; Surface, 2 kg./ha.) was 4, the Weeding activity (Dactylis glomerata; Surface, 4 kg./ha.) was 4/3 and the Weeding activity (Dactylis glomerata; Surface, 6 kg./ha.) was 4. It also gave a Weeding activity (Dactylis glomerata; [3]) of 4, a Weeding activity (Dactylis glomerata; [4]) of 4 and a Weeding activity (Dactylis glomerata; [5]) of 4. The Weeding activity (Echinocloa crus galli; Surface, 1 kg./ha.) was 3, the Weeding activity (Echinocloa crus galli; Surface, 2 kg./ha.) was 3/4 and the Weeding activity (Echinocloa crus galli; Surface, 4 kg./ha.) was 4/3. The Weeding activity (Echinocloa crus galli; Surface, 6 kg./ha.) was 4, the Weeding activity (Echinocloa crus galli; [3]) was 4/3 and the Weeding activity (Echinocloa crus galli; [4]) was 4. For the same compound, the Weeding activity (Echinocloa crus galli; [5]) was 4, the Weeding activity (Setaria italica; Surface, 1 kg./ha.) was 3 and the Weeding activity (Setaria italica; Surface, 2 kg./ha.) was 3. For the same compound, the Weeding activity (Setaria italica; Surface, 4 kg./ha.) was 4/3, the Weeding activity (Setaria italica; Surface, 6 kg./ha.) was 4/3 and the Weeding activity (Setaria italica; [3]) was 3/4. For the same compound, the Weeding activity (Setaria italica; [4]) was 4/3, the Weeding activity (Setaria italica; [5]) was 4 and the Weeding activity (Digitaria sanguinalis; Surface, 1 kg./ha.) was 3. For the same compound, the Weeding activity (Digitaria sanguinalis; Surface, 2 kg./ha.) was 4, the Weeding activity (Digitaria sanguinalis; Surface, 4 kg./ha.) was 4 and the Weeding activity (Digitaria sanguinalis; Surface, 6 kg./ha.) was 4. For the same compound, the Weeding activity (Digitaria sanguinalis; [3]) was 4, the Weeding activity (Digitaria sanguinalis; [4]) was 4 and the Weeding activity (Digitaria sanguinalis; [5]) was 4. It also gave a Weeding activity (Lolium italicum; Surface, 1 kg./ha.) of 4, a Weeding activity (Lolium italicum; Surface, 2 kg./ha.) of 4 and a Weeding activity (Lolium italicum; Surface, 4 kg./ha.) of 4. It also gave a Weeding activity (Lolium italicum; Surface, 6 kg./ha.) of 4, a Weeding activity (Lolium italicum; [3]) of 4 and a Weeding activity (Lolium italicum; [4]) of 4. It also gave a Weeding activity (Lolium italicum; [5]) of 4, a Main root (Echinocloa spp.; [6]) of 0 cm and a Shoot (Echinocloa spp.; [6]) of 0 cm. The “Stand (Sprouted plants)” value (Echinocloa spp.; [6]) was 0%, the Main root (Echinocloa spp.; [7]) was 0 cm and the Shoot (Echinocloa spp.; [7]) was 0 cm. The “Stand (Sprouted plants)” value (Echinocloa spp.; [7]) was 0%, the Main root (Echinocloa spp.; [8]) was 3.28 cm and the Shoot (Echinocloa spp.; [8]) was 8.81 cm. The Stand (Echinocloa spp.; [8]) was 62%, the Main root (Echinocloa spp.; [9]) was 0 cm and the Shoot (Echinocloa spp.; [9]) was 0 cm. For the same compound, the Stand (Echinocloa spp.; [9]) was 0%, the Main root (Echinocloa spp.; [10]) was 0 cm and the Shoot (Echinocloa spp.; [10]) was 0 cm. The Stand (Echinocloa spp.; [10]) was 0%, the Main root (Echinocloa spp.; [11]) was 0 cm and the Shoot (Echinocloa spp.; [11]) was 0 cm. It also gave a Stand (Echinocloa spp.; [11]) of 0%, a Main root (Echinocloa spp.; [12]) of 0 cm and a Shoot (Echinocloa spp.; [12]) of 0 cm. It also gave a Stand (Echinocloa spp.; [12]) of 0%, a Main root (Echinocloa spp.; [13]) of 0 cm and a Shoot (Echinocloa spp.; [13]) of 0 cm. For the same compound, the Stand (Echinocloa spp.; [13]) was 0%, the Main root (Echinocloa spp.; [14]) was 0 cm and the Shoot (Echinocloa spp.; [14]) was 0 cm. The Stand (Echinocloa spp.; [14]) was 0%.

With CCSC(=O)N1CCCCCC1 [Molinate, ethyl-1-hexamethylene-imino-carbothiolate, reference compound] the “Main root, average value per plant” value (rice [1]; 4 kg./ha.) was 7.4 cm, the “Shoot, average value per plant” value (rice [1]; 4 kg./ha.) was 15.3 cm and the Sprouted plants (rice [1]; 4 kg./ha.) was 42.3%. The “Main root, average value per plant” value (rice [1]; 6 kg./ha.) was 3.9 cm, the “Shoot, average value per plant” value (rice [1]; 6 kg./ha.) was 8.2 cm and the Sprouted plants (rice [1]; 6 kg./ha.) was 20.0%. For the same compound, the “Main root, average value per plant” value (rice [1]; 8 kg./ha.) was 4.6 cm, the “Shoot, average value per plant” value (rice [1]; 8 kg./ha.) was 6.6 cm and the Sprouted plants (rice [1]; 8 kg./ha.) was 11.0%. For the same compound, the “Margin of safety on rice” value (rice [1]; rice growth unfavorably affected even at 6 kg./ha.) was “narrow margin of safety”, the Main root (rice [2]; 4 kg./ha.) was 7.67 cm and the “Roots … per plant on dry basis” value (rice [2]; 4 kg./ha.) was 1.866 g. The Secondary roots (rice [2]; 4 kg./ha.) was 9.06 no, the Shoot (rice [2]; 4 kg./ha.) was 25.72 cm and the “Shoot … per plant on dry basis” value (rice [2]; 4 kg./ha.) was 3.257 g. For the same compound, the “Total … per plant on dry basis” value (rice [2]; 4 kg./ha.) was 5.123 g, the Average height (Rice plants; 4 kg./ha.) was 35-45 cm and the Rice plants appearance (Rice plants; 4 kg./ha.) was “normal”. For the same compound, the “Stand (number of tillers per unit of area)” value (Rice plants; 4 kg./ha.) was “normal”, the Weeding activity (Dactylis glomerata; Surface, 2 kg./ha.) was 1/2 and the Weeding activity (Dactylis glomerata; Surface, 4 kg./ha.) was 1/2. The Weeding activity (Dactylis glomerata; Surface, 6 kg./ha.) was 3, the Weeding activity (Dactylis glomerata; [3]) was 3 and the Weeding activity (Dactylis glomerata; [4]) was 4/3. The Weeding activity (Dactylis glomerata; [5]) was 4/3, the Weeding activity (Echinocloa crus galli; Surface, 2 kg./ha.) was 2 and the Weeding activity (Echinocloa crus galli; Surface, 4 kg./ha.) was 1/2. The Weeding activity (Echinocloa crus galli; Surface, 6 kg./ha.) was 1/2, the Weeding activity (Echinocloa crus galli; [3]) was 3 and the Weeding activity (Echinocloa crus galli; [4]) was 3. For the same compound, the Weeding activity (Echinocloa crus galli; [5]) was 3/4, the Weeding activity (Setaria italica; Surface, 2 kg./ha.) was 0/1 and the Weeding activity (Setaria italica; Surface, 4 kg./ha.) was 0/1. For the same compound, the Weeding activity (Setaria italica; Surface, 6 kg./ha.) was 0/1, the Weeding activity (Setaria italica; [3]) was 3 and the Weeding activity (Setaria italica; [4]) was 3. The Weeding activity (Setaria italica; [5]) was 3, the Weeding activity (Digitaria sanguinalis; Surface, 2 kg./ha.) was 0 and the Weeding activity (Digitaria sanguinalis; Surface, 4 kg./ha.) was 3/4. For the same compound, the Weeding activity (Digitaria sanguinalis; Surface, 6 kg./ha.) was 4, the Weeding activity (Digitaria sanguinalis; [3]) was 4 and the Weeding activity (Digitaria sanguinalis; [4]) was 4. For the same compound, the Weeding activity (Digitaria sanguinalis; [5]) was 4, the Weeding activity (Lolium italicum; Surface, 2 kg./ha.) was 0/1 and the Weeding activity (Lolium italicum; Surface, 4 kg./ha.) was 2. For the same compound, the Weeding activity (Lolium italicum; Surface, 6 kg./ha.) was 2/3, the Weeding activity (Lolium italicum; [3]) was 3/2 and the Weeding activity (Lolium italicum; [4]) was 3/4. It also gave a Weeding activity (Lolium italicum; [5]) of 4, a Main root (Echinocloa spp.; [7]) of 0 cm and a Shoot (Echinocloa spp.; [7]) of 0 cm. The “Stand (Sprouted plants)” value (Echinocloa spp.; [7]) was 0%.

From patent publication US3930838A, “S-benzyl-N,N-disec-butylthiocarbamate and its use as a rice field herbicide and a rice growth stimulant” (priority 1970, dated 1976)
